Drawing on patent publication US9120785B2, “Pyridyl aminopyridines as Syk inhibitors” (Merck Sharp & Dohme Corp., priority 2011, dated 2015), this text covers IC50 for 23 molecules.

In the first test the target is recombinant human GST-Syk (Homo sapiens (Human), UniProt P43405). The experiment in a line: Homogeneous Time-Resolved Fluorescence (HTRF) assay for the recombinant human Syk enzyme. It is filed as biochemical. The note with it: recombinant human GST-Syk 5 pM, ATP 25 μM, 10-dose titration; read-out: rhSyk (nM) IC50. As for the experimental part:
Homogeneous Time-Resolved Fluorescence (HTRF) Assay for the Recombinant Human Syk Enzyme:
A recombinant GST-hSyk fusion protein was used to measure potency of compounds to inhibit human Syk activity. The recombinant human GST-Syk ([…] #08-176) (5 pM final concentration) was incubated with various concentrations of the inhibitor diluted in DMSO (0.1% final concentration) for 10 minutes at room temperature in 15 mM Tris-HCl (pH 7.5), 0.01% tween 20, 2 mM DTT in 384 well plate format. To initiate the reaction the biotinylated substrate peptide (250 nM final concentration) that contains the phosphorylation site for Syk was added with magnesium (5 mM final concentration) and ATP (25 μM final concentration). Final volume of the reaction was 10 μL. Phosphorylation of the peptide was allowed to proceed for 45 minutes at room temperature. To quench the reaction and detect the phosphorylated product, 2 nM of a Europium-anti-phosphotyrosine antibody (Perkin Elmer #AD0161) and 70 nM SA-APC (Perkin-Elmer #CR130-100) were added together in 15 mM Tris pH 7.5, 40 mM EDTA, 0.01% tween 20. Final volume of the quenching solution was 10 μL. The resulting HTRF signal was measured after 30 minutes on an EnVision (Perkin-Elmer) reader using a time-resolved fluorescence protocol.
Background: Time-resolved FRET reads energy transfer from a long-lived donor to a nearby acceptor.
For orientation: IC50 means the concentration that gives 50% inhibition. With “butyl trans-4-[1-hydroxy-1-(5-{6-[(4-methoxypyridin-2-yl)amino]-4-methylpyridin-2-yl}-1,3-thiazol-2-yl)ethyl]cyclohexanecarboxylate [Example 14-2]”, the IC50 is 219 nM.

Turning to `CCC(O)(c1ncc(-c2cc(C)cc(Nc3cc(C4CC4)ccn3)n2)s1)[C@H]1CC[C@H](C(=O)O)CC1` (single isomer, unassigned) [Example 1, Enantiomer 1, trans-4-[1-(5-{6-[(4-cyclopropylpyridin-2-yl)amino]-4-methylpyridin-2-yl}-1,3-thiazol-2-yl)-1-hydroxypropyl]cyclohexanecarboxylic acid], the IC50 came out at 2.9 nM.

Staying with this test, now noted: recombinant human GST-Syk 5 pM, ATP 25 μM; class symbols; read-out: rhSyk activity (IC50).
As for “butyl trans-4-[1-hydroxy-1-(5-{6-[(4-methoxypyridin-2-yl)amino]-4-methylpyridin-2-yl}-1,3-thiazol-2-yl)ethyl]cyclohexanecarboxylate [Example 14-2]”, the IC50 lay within 100 to 1000 nM.

In the case of `Cc1ccnc(Nc2cccc(-c3cnc(C(C)(O)[C@H]4CC[C@H](C(=O)O)CC4)s3)n2)c1` (single isomer, unassigned) [Example 14-39, trans-4-[1-hydroxy-1-(5-{6-[(4-methylpyridin-2-yl)amino]pyridin-2-yl}-1,3-thiazol-2-yl)ethyl]cyclohexanecarboxylic acid], the 50% inhibitory concentration (IC50) was no more than 100 nM.

As for `COC(=O)[C@H]1CC[C@H](C(O)c2ncc(-c3cc(C)cc(Nc4cc(C(F)(F)F)ccn4)n3)s2)CC1` (relative stereo) [Example 14-27, methyl trans-4-{hydroxy[5-(4-methyl-6-{[4-(trifluoromethyl)pyridin-2-yl]amino}pyridin-2-yl)-1,3-thiazol-2-yl]methyl}cyclohexanecarboxylate], the 50% inhibitory concentration (IC50) is no more than 100 nM.

Turning to `Cc1cc(Nc2cc(C)c(Cl)cn2)nc(-c2cnc(C(C)(O)[C@H]3CC[C@H](C(=O)O)CC3)s2)c1` (relative stereo) [Example 14-5, trans-4-[1-(5-{6-[(5-chloro-4-methylpyridin-2-yl)amino]-4-methylpyridin-2-yl}-1,3-thiazol-2-yl)-1-hydroxyethyl]cyclohexanecarboxylic acid], the IC50 was no more than 100 nM.

`CC1(C)C[C@@H](C(C)(O)c2ncc(-c3cccc(Nc4cc(C(F)(F)F)ccn4)n3)s2)CC[C@@H]1C(=O)O` (stereo partly drawn) [Example 14-45, (1S,4S)-4-{1-hydroxy-1-[5-(6-{[4-(trifluoromethyl)pyridin-2-yl]amino}pyridin-2-yl)-1,3-thiazol-2-yl]ethyl}-2,2-dimethylcyclohexanecarboxylic acid]: the IC50 is no more than 100 nM.

With `CCC(O)(c1ncc(-c2cc(C)cc(Nc3cc(C4CC4)ccn3)n2)s1)[C@H]1CC[C@H](C(N)=O)CC1` (single isomer, unassigned) [Example 2, Enantiomer 1, trans-4-[1-(5-{6-[(4-cyclopropylpyridin-2-yl)amino]-4-methylpyridin-2-yl}-1,3-thiazol-2-yl)-1-hydroxypropyl]cyclohexanecarboxamide], the IC50 is no more than 100 nM.

For `Cc1cc(Nc2cc(C(F)(F)F)ccn2)nc(-c2cnc(C(O)(C3CC3)[C@H]3CC[C@H](C(=O)O)CC3)s2)c1` (single isomer, unassigned) [Example 14-17, trans-4-{cyclopropyl(hydroxy)[5-(4-methyl-6-{[4-(trifluoromethyl)pyridin-2-yl]amino}pyridin-2-yl)-1,3-thiazol-2-yl]methyl}cyclohexanecarboxylic acid], the IC50 is no more than 100 nM.

Take `Cc1cc(Nc2cc(C(F)(F)F)ccn2)nc(-c2cnc(C(C)(O)C3CCC(C(=O)O)C(C)C3)s2)c1` (single isomer, unassigned) [Example 15-9, 4-{1-hydroxy-1-[5-(4-methyl-6-{[4-(trifluoromethyl)pyridin-2-yl]amino}pyridin-2-yl)-1,3-thiazol-2-yl]ethyl}-2-methylcyclohexanecarboxylic acid]: the half-inhibitory concentration (IC50) was no more than 100 nM.

`Cc1cc(Nc2cc(C(F)(F)F)ccn2)nc(-c2cnc([C@](C)(O)[C@H]3CNC(=O)C3)s2)c1` [Example 14-56, (4R)-4-{(1R)-1-hydroxy-1-[5-(4-methyl-6-{[4-(trifluoromethyl)pyridin-2-yl]amino}pyridin-2-yl)-1,3-thiazol-2-yl]ethyl}pyrrolidin-2-one]: the IC50 was no more than 100 nM.

Consider `COc1ccnc(Nc2cc(C)cc(-c3cnc(C(C)(O)[C@H]4CC[C@H](C(=O)O)C(C)(C)C4)s3)n2)c1` (stereo partly drawn) [Example 14-35, (1S,4S)-4-[1-hydroxy-1-(5-{6-[(4-methoxypyridin-2-yl)amino]-4-methylpyridin-2-yl}-1,3-thiazol-2-yl)ethyl]-2,2-dimethylcyclohexanecarboxylic acid], for which the IC50 is no more than 100 nM.

Turning to `COc1ccnc(Nc2cc(C)cc(-c3cnc(C(C)(O)[C@H]4CC[C@H](C(=O)O)CC4)s3)n2)c1` (relative stereo) [Example 14-3, trans-4-[1-hydroxy-1-(5-{6-[(4-methoxypyridin-2-yl)amino]-4-methylpyridin-2-yl}-1,3-thiazol-2-yl)ethyl]cyclohexanecarboxylic acid], the IC50 is no more than 100 nM.

For the molecule `CC(O)(c1ncc(-c2cccc(Nc3cc(C(F)F)ccn3)n2)s1)[C@H]1CC[C@H](C(=O)O)CC1` (relative stereo) [Example 14-42, trans-4-{1-[5-(6-{[4-(difluoromethyl)pyridin-2-yl]amino}pyridin-2-yl)-1,3-thiazol-2-yl]-1-hydroxyethyl}cyclohexanecarboxylic acid], the IC50 is no more than 100 nM.

`Cc1ccnc(Nc2cccc(-c3cnc(C(C)(O)[C@H]4CC[C@H](C(=O)O)CC4)s3)n2)c1` (single isomer, unassigned) [Example 14-40, trans-4-[1-hydroxy-1-(5-{6-[(4-methylpyridin-2-yl)amino]pyridin-2-yl}-1,3-thiazol-2-yl)ethyl]cyclohexanecarboxylic acid]: the IC50 is no more than 100 nM.

On to `Cc1cc(Nc2cc(OC(C)C)ccn2)nc(-c2cnc(C(O)(C3CC3)[C@H]3CC[C@H](C(=O)O)CC3)s2)c1` (single isomer, unassigned) [Example 14-24, trans-4-{cyclopropyl(hydroxy)[5-(4-methyl-6-{[4-(propan-2-yloxy)pyridin-2-yl]amino}pyridin-2-yl)-1,3-thiazol-2-yl]methyl}cyclohexanecarboxylic acid], for which the IC50 is no more than 100 nM.

Take `Cc1cc(Nc2cccc(-c3cnc(C(C)(O)[C@H]4CC[C@H](C(=O)O)CC4)s3)n2)ncc1F` (single isomer, unassigned) [Example 6, trans-4-[(1R or 1S)-1-(5-{6-[(5-Fluoro-4-methylpyridin-2-yl)amino]pyridin-2-yl}-1,3-thiazol-2-yl)-1-hydroxyethyl]cyclohexanecarboxylic acid]: the 50% inhibitory concentration (IC50) was no more than 100 nM.

On to `Cc1cc(Nc2cc(C(F)(F)F)ccn2)nc(-c2cnc(C(C)(O)C3CCC(C(=O)O)C(C)C3)s2)c1` (stereo not shown) [Example 15-14, 4-{1-hydroxy-1-[5-(4-methyl-6-{[4-(trifluoromethyl)pyridin-2-yl]amino}pyridin-2-yl)-1,3-thiazol-2-yl]ethyl}-2-methylcyclohexanecarboxylic acid], for which the IC50 was no more than 100 nM.

For the molecule `Cc1cc(Nc2cc(OC(C)C)ccn2)nc(-c2cnc(C(O)(C3CC3)[C@H]3CC[C@H](C(=O)O)CC3)s2)c1` (single isomer, unassigned) [Example 14-23, trans-4-{cyclopropyl(hydroxy)[5-(4-methyl-6-{[4-(propan-2-yloxy)pyridin-2-yl]amino}pyridin-2-yl)-1,3-thiazol-2-yl]methyl}cyclohexanecarboxylic acid], the IC50 was no more than 100 nM.

Regarding `CCC(O)(c1ncc(-c2cc(C)cc(Nc3cc(C4CC4)ccn3)n2)s1)[C@H]1CC[C@H](C(=O)O)CC1` (single isomer, unassigned) [Example 1, Enantiomer 1, trans-4-[1-(5-{6-[(4-cyclopropylpyridin-2-yl)amino]-4-methylpyridin-2-yl}-1,3-thiazol-2-yl)-1-hydroxypropyl]cyclohexanecarboxylic acid], the IC50 was no more than 100 nM.

As for `CC(O)(c1ncc(-c2cc(Cl)cc(Nc3cc(C(F)(F)F)ccn3)n2)s1)[C@H]1CC[C@H](C(=O)O)CC1` (single isomer, unassigned) [Example 14-52, trans-4-{1-[5-(4-chloro-6-{[4-(trifluoromethyl)pyridin-2-yl]amino}pyridin-2-yl)-1,3-thiazol-2-yl]-1-hydroxyethyl}cyclohexanecarboxylic acid], the IC50 was no more than 100 nM.

`Cc1cc(Nc2cc(C(F)(F)F)ccn2)nc(-c2cnc(C(C)(O)[C@@H]3CC[C@H](C(=O)O)C(C)(C)C3)s2)c1` (stereo partly drawn) [Example 14-30, (1S,4R)-4-{1-hydroxy-1-[5-(4-methyl-6-{[4-(trifluoromethyl)pyridin-2-yl]amino}pyridin-2-yl)-1,3-thiazol-2-yl]ethyl}-2,2-dimethylcyclohexanecarboxylic acid]: the IC50 was no more than 100 nM.

Regarding `Cc1cc(Nc2cc(C(F)(F)F)ccn2)nc(-c2cnc(C(C)(O)C3CCC(C(=O)O)C(C)C3)s2)c1` (single isomer, unassigned) [Example 15-7, 4-{1-hydroxy-1-[5-(4-methyl-6-{[4-(trifluoromethyl)pyridin-2-yl]amino}pyridin-2-yl)-1,3-thiazol-2-yl]ethyl}-2-methylcyclohexanecarboxylic acid], the IC50 was no more than 100 nM.

On to `CC(O)(c1ncc(-c2cc(C3CC3)cc(Nc3cc(C(F)(F)F)ccn3)n2)s1)[C@H]1CC[C@H](C(=O)O)CC1` (single isomer, unassigned) [Example 14-54], for which the IC50 was no more than 100 nM.

Take `Cc1cc(Nc2cccc(-c3cnc(C(C)(O)[C@H]4CC[C@H](C(=O)O)CC4)s3)n2)ncc1F` (single isomer, unassigned) [Example 5, trans-4-[(1R or 1S)-1-(5-{6-[(5-Fluoro-4-methylpyridin-2-yl)amino]pyridin-2-yl}-1,3-thiazol-2-yl)-1-hydroxyethyl]cyclohexanecarboxylic acid]: the IC50 was no more than 100 nM.
